Test results reported in patent publication US20230081390A1, “INHIBITORS OF RAF KINASES” (Kinnate Biopharma Inc., priority 2019, published 2023).

Biological target: human RAF1 (Homo sapiens, UniProt P04049)
Assay: Protein kinase assay (33P-ATP filter binding), human RAF1, 10-dose IC50
Format: biochemical
Settings: MEK1 (K97R) substrate 3 micromolar, ATP 10 micromolar, read-out: RAF-1 IC50
Procedure, shortened: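 Radiometric filter-binding format: 10 µM ATP, 3 µM MEK1 (K97R) as substrate for human RAF1, 2 hr at room temperature in 20 mM HEPES pH 7.5 with 10 mM MgCl2. Compounds were dispensed acoustically from DMSO. IC50 came from percent kinase activity relative to vehicle over a 10-dose series.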

human RAF1, sequence (P04049 whole entry): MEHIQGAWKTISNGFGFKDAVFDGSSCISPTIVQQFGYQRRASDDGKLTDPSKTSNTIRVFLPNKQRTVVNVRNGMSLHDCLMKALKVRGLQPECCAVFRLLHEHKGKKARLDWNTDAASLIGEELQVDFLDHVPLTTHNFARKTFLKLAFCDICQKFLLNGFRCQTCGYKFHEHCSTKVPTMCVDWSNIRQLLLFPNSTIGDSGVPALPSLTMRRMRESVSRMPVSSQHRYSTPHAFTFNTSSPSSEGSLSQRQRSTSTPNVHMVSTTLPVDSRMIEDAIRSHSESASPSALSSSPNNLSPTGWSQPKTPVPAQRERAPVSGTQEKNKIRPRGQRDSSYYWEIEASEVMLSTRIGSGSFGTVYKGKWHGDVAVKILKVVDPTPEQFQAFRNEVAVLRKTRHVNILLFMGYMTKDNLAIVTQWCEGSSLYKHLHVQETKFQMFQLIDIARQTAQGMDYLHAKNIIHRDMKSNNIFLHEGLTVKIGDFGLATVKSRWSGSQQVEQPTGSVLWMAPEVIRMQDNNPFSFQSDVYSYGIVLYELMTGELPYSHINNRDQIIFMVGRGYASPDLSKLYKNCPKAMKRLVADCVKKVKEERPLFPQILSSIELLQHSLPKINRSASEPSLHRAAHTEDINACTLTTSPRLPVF

| IC50 [nM] | SMILES |
| --- | --- |
| < 10 | Cc1cc(F)c(NC(=O)N2CCCC(N)(C(F)(F)F)C2)cc1-c1cc(OCCO)nc(N2CCOCC2)c1 (stereo not drawn) [Example 54, 3-amino-N-[2-fluoro-5-[2-(2-hydroxyethoxy)-6-(morpholin-4-yl)pyridin-4-yl]-4-methylphenyl]-3-(trifluoromethyl)piperiidne-1-carboxamide] |
| < 10 | Cc1cc(F)c(NC(=O)N2CCS[C@H](C(F)(F)F)C2)cc1-c1cc(OCCO)nc(N2CCOCC2)c1 [Example 168, (S)-N-(2-fluoro-5-(2-(2-hydroxyethoxy)-6-morpholinopyridin-4-yl)-4-methylphenyl)-2-(trifluoromethyl)thiomorpholine-4-carboxamide] |
| < 10 | Cc1ccc(NC(=O)N2CC[C@H](OC(F)(F)F)C2)cc1-c1cc(O[C@H](C)[C@@H](C)O)nc(N2CCOCC2)c1 [Example 172, (S)-N-(3-(2-(((2R,3R)-3-hydroxybutan-2-yl)oxy)-6-morpholinopyridin-4-yl)-4-methylphenyl)-3-(trifluoromethoxy)pyrrolidine-1-carboxamide] |
| < 10 | Cc1cc(F)c(NC(=O)N2CCCC3(CCC3)C2)cc1-c1cc(OCCO)nc(N2CCOCC2)c1 [Example 38, N-[2-fluoro-5-[2-(2-hydroxyethoxy)-6-(morpholin-4-yl)pyridin-4-yl]-4-methylphenyl]-6-azaspiro[3.5]nonane-6-carboxamide] |
| < 10 | Cc1ccc(NC(=O)N2CC[C@@H](CC(F)(F)F)C2)cc1-c1cc(OCCS(C)(=N)=O)nc(N2CCOCC2)c1 (stereo partly drawn) [Example 221, (3S)-N-[3-(2-[2-[imino(methyl)oxo-λ^6-sulfanyl]ethoxy]-6-(morpholin-4-yl)pyridin-4-yl)-4-methylphenyl]-3-(2,2,2-trifluoroethyl)pyrrolidine-1-carboxamide] |
| 10 to 100 | Cc1cc(F)c(NC(=O)N2CCCCC(F)(F)C2)cc1-c1cc(OCCO)nc(N2CCOCC2)c1 [Example 46, 3,3-difluoro-N-[2-fluoro-5-[2-(2-hydroxyethoxy)-6-(morpholin-4-yl)pyridin-4-yl]-4-methylphenyl]azepane-1-carboxamide] |
| < 10 | Cc1ccc(NC(=O)N2CC[C@@H](OCC(F)(F)F)C2)cc1-c1cc(OCCO)nc(N2CCOCC2)c1 [Example 133, (3R)-N-[3-[2-(2-hydroxyethoxy)-6-(morpholin-4-yl)pyridin-4-yl]-4-methylphenyl]-3-(2,2,2-trifluoroethoxy)pyrrolidine-1-carboxamide] |
| < 10 | Cc1cc(F)c(NC(=O)N2CCC(C(C)C(F)(F)F)C2)cc1-c1cc(OCCO)nc(N2CCOCC2)c1 (single isomer, unassigned) [Example 102, N-[2-fluoro-5-[2-(2-hydroxyethoxy)-6-(morpholin-4-yl)pyridin-4-yl]-4-methylphenyl]-3-(1,1,1-trifluoropropan-2-yl)pyrrolidine-1-carboxamide] |
| < 10 | Cc1ccc(NC(=O)N2CC[C@H](OC(F)(F)F)C2)cc1-c1cc(O[C@@H](C)CO)nc(N2CCOCC2)c1 [Example 151, (3S)-N-[3-(2-[[(2S)-1-hydroxypropan-2-yl]oxy]-6-(morpholin-4-yl)pyridin-4-yl)-4-methylphenyl]-3-(trifluoromethoxy)pyrrolidine-1-carboxamide] |
| < 10 | Cc1ccc(NC(=O)N2CC(OC(F)(F)F)CN2)cc1-c1cc(OCCO)nc(N2CCOCC2)c1 (stereo not drawn) [Example 146, N-[3-[2-(2-hydroxyethoxy)-6-(morpholin-4-yl)pyridin-4-yl]-4-methylphenyl]-4-(trifluoromethoxy) pyrazolidine-1-carboxamide] |
| < 10 | Cc1ccc(NC(=O)N2CC[C@@H](CC(F)(F)F)C2)cc1-c1cc(OCCC2(O)COC2)nc(N2CCOCC2)c1 [Example 225, (3S)-N-(3-[2-[2-(3-hydroxyoxetan-3-yl)ethoxy]-6-(morpholin-4-yl)pyridin-4-yl]-4-methylphenyl)-3-(2,2,2-trifluoroethyl)pyrrolidine-1-carboxamide] |
| < 10 | Cc1cc(F)c(NC(=O)N2CC[C@H](C(F)(F)F)C2)cc1-c1cnc(OC2CCOCC2)c(N2CCOCC2)c1 (single isomer, unassigned) [Example 32] |
| < 10 | Cc1cc(F)c(NC(=O)N2CC[C@@H](OC(F)(F)F)C2)cc1-c1cc(OCCO)nc(N2CCOCC2)c1 (single isomer, unassigned) [Example 77] |
| < 10 | Cc1cc(F)c(NC(=O)N2CCC(CF)(C(F)(F)F)C2)cc1-c1cc(OCCO)nc(N2CCOCC2)c1 (stereo not drawn) [Example 45, N-[2-fluoro-5-[2-(2-hydroxyethoxy)-6-(morpholin-4-yl)pyridin-4-yl]-4-methylphenyl]-3-(fluoromethyl)-3-(trifluoromethyl)pyrrolidine-1-carboxamide] |
| < 10 | Cc1ccc(NC(=O)N2CC[C@H](C(F)(F)F)C2)cc1-c1cnc(OC2CCOCC2)c(N2CCOCC2)c1 (single isomer, unassigned) [Example 120] |
| < 10 | Cc1ccc(NC(=O)N2CC[C@@H](CC(F)(F)F)C2)cc1-c1cc(O[C@H]2CC[C@H](O)C2)nc(N2CCOCC2)c1 [Example 207, (3S)-N-[3-(2-[[(1S,3S)-3-hydroxycyclopentyl]oxy]-6-(morpholin-4-yl)pyridin-4-yl)-4-methylphenyl]-3-(2,2,2-trifluoroethyl)pyrrolidine-1-carboxamide] |
| < 10 | Cc1cc(F)c(NC(=O)N2CCC3C2C3C(F)(F)F)cc1-c1cc(OCCO)nc(N2CCOCC2)c1 (single isomer, unassigned) [Example 69, N-[2-fluoro-5-[2-(2-hydroxyethoxy)-6-(morpholin-4-yl)pyridin-4-yl]-4-methylphenyl]-6-(trifluoromethyl)-2-azabicyclo[3.1.0]hexane-2-carboxamide] |
| < 10 | Cc1ccc(NC(=O)N2CCC3(CCC3(F)F)C2)cc1-c1cc(OCCO)nc(N2CCOCC2)c1 (single isomer, unassigned) [Example 122, 1,1-difluoro-N-[3-[2-(2-hydroxyethoxy)-6-(morpholin-4-yl)pyridin-4-yl]-4-methylphenyl]-6-azaspiro[3.4]octane-6-carboxamide] |
| < 10 | Cc1cc(F)c(NC(=O)N2CC[C@@H](C(F)(F)F)C2)cc1-c1cnc(OCCO)c(N2CCOCC2)c1 [Example 12] |
| < 10 | Cc1ccc(NC(=O)N2CC[C@@H](SC(F)(F)F)C2)cc1-c1cnc(OC2CCOCC2)c(N2CCOCC2)c1 [Example 131, (3R)-N-[4-methyl-3-[5-(morpholin-4-yl)-6-(oxan-4-yloxy)pyridin-3-yl]phenyl]-3-[(trifluoromethyl)sulfanyl]pyrrolidine-1-carboxamide] |
| < 10 | Cc1cc(F)c(NC(=O)N2CC[C@@H](CC(F)(F)F)C2)cc1-c1cc(OC[C@@H](C)O)nc(N2CCOCC2)c1 [Example 181, (S)-N-(2-fluoro-5-(2-((R)-2-hydroxypropoxy)-6-morpholinopyridin-4-yl)-4-methylphenyl)-3-(2,2,2-trifluoroethyl)pyrrolidine-1-carboxamide] |
| < 10 | C/C(=C1/CCN(C(=O)Nc2cc(-c3cc(OCCO)nc(N4CCOCC4)c3)c(C)cc2F)C1)C(F)(F)F [Example 95, (3E)-N-[2-fluoro-5-[2-(2-hydroxyethoxy)-6-(morpholin-4-yl)pyridin-4-yl]-4-methylphenyl]-3-(1,1,1-trifluoropropan-2-ylidene)pyrrolidine-1-carboxamide] |
| < 10 | Cc1ccc(NC(=O)N(C)c2cnn(C(F)(F)F)c2)cc1-c1cc(OC[C@@H](C)O)nc(N2CCOCC2)c1 [Example 156, 1-(3-[2-[(2R)-2-hydroxypropoxy]-6-(morpholin-4-yl)pyridin-4-yl]-4-methylphenyl)-3-methyl-3-[1-(trifluoromethyl)pyrazol-4-yl]urea] |
| < 10 | Cc1cc(F)c(NC(=O)N2CCC3(CC3)C2)cc1-c1cc(OCCO)nc(N2CCOCC2)c1 [Example 18, N-[2-fluoro-5-[2-(2-hydroxyethoxy)-6-(morpholin-4-yl)pyridin-4-yl]-4-methylphenyl]-5-azaspiro[2.4]heptane-5-carboxamide] |
| < 10 | Cc1cc(F)c(NC(=O)N2CCC3(CCCC3)C2)cc1-c1cc(OCCO)nc(N2CCOCC2)c1 [Example 73, N-(2-fluoro-5-(2-(2-hydroxyethoxy)-6-morpholinopyridin-4-yl)-4-methylphenyl)-2-azaspiro[4.4]nonane-2-carboxamide] |
| < 10 | Cc1cc(F)c(NC(=O)N2CC=C(CC(F)(F)F)C2)cc1-c1cc(OCCO)nc(N2CCOCC2)c1 [Example 96, N-[2-fluoro-5-[2-(2-hydroxyethoxy)-6-(morpholin-4-yl)pyridin-4-yl]-4-methylphenyl]-3-(2,2,2-trifluoroethyl)-2,5-dihydropyrrole-1-carboxamide] |
| < 10 | Cc1ccc(NC(=O)N2CC[C@@H](OC(F)(F)F)C2)cc1-c1cc(OC[C@H](C)O)nc(N2CCOCC2)c1 [Example 213, (3R)-N-(3-[2-[(2S)-2-hydroxypropoxy]-6-(morpholin-4-yl)pyridin-4-yl]-4-methylphenyl)-3-(trifluoromethoxy)pyrrolidine-1-carboxamide] |
| < 10 | Cc1ccc(NC(=O)N2CC[C@@H](OC(F)(F)F)C2)cc1-c1cc(O[C@@H](C)CO)nc(N2CCOCC2)c1 [Example 215, (3R)-N-[3-(2-[[(2S)-1-hydroxypropan-2-yl]oxy]-6-(morpholin-4-yl)pyridin-4-yl)-4-methylphenyl]-3-(trifluoromethoxy)pyrrolidine-1-carboxamide] |
| < 10 | Cc1ccc(NC(=O)N2CC[C@@H](CC(F)(F)F)C2)cc1-c1cc(OC2CCC(C)(O)CC2)nc(N2CCOCC2)c1 (stereo partly drawn) [Example 212, (3S)-N-(3-[2-[(4-hydroxy-4-methylcyclohexyl)oxy]-6-(morpholin-4-yl)pyridin-4-yl]-4-methylphenyl)-3-(2,2,2-trifluoroethyl)pyrrolidine-1-carboxamide (trans)] |

| SMILES | IC50 [nM] |
| --- | --- |
| Cc1ccc(NC(=O)N2CC[C@@H](CC(F)(F)F)C2)cc1-c1cc(OC2CC(O)C2)nc(N2CCOCC2)c1 (stereo partly drawn) [Example 206, (3S)-N-[3-[2-(3-hydroxycyclobutoxy)-6-(morpholin-4-yl)pyridin-4-yl]-4-methylphenyl]-3-(2,2,2-trifluoroethyl)pyrrolidine-1-carboxamide] | < 10 |
